Measured values published in PMC5972032, “Evolution of substrate specificity in the Nucleobase-Ascorbate Transporter (NAT) protein family” (Microbial Cell, 2018).

Biological target: T1, UapA (Aspergillus nidulans, UniProt Q07307)
T1 construct: full-length, C-terminal GFP tag (plasmid pAN510-GFP), expressed in A. nidulans uapAΔ uapCΔ azgAΔ pabaA1 argB2; homodimer
Assay: inhibition of [3H]-xanthine uptake in germinating conidiospores
Type: cell-based
Description: inhibition of [3H]-xanthine uptake in germinating conidiospores on UapA | wild-type UapA can indeed bind L-ascorbate with very low affinity, reflected in a Ki

T1 sequence (Q07307 whole entry): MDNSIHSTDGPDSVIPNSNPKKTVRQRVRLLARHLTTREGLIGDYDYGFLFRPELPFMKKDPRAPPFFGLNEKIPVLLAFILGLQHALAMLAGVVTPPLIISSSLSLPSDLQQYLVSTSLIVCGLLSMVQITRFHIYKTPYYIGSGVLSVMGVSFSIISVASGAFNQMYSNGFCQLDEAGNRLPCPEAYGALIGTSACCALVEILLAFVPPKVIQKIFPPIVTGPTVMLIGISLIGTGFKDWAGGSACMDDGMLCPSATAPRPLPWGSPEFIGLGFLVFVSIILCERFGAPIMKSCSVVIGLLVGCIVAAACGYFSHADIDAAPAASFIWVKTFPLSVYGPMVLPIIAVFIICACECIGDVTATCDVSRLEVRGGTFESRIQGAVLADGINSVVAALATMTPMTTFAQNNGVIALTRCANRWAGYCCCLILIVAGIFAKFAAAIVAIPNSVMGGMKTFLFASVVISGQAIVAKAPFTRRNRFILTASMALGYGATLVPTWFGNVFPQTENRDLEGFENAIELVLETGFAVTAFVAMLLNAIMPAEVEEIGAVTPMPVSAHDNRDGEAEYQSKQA

Ki: ~17 mM
Compound: O=C1O[C@H]([C@@H](O)CO)C(O)=C1O [L-ascorbate]
